Target: T1, Q46 protein aggregates (Homo sapiens, UniProt P42858)
T1 construct: fused on or other part: GST at the N-terminus, cut off with thrombin before the test to start aggregation; The wells held aggregated Q46 without GST
Assay: Q46 radioligand binding assay (RBA)
Conditions: 10 nM ligand [3H3]MK-3328
Procedure: Q46 Radioligand Binding Assay
For radioligand binding assays (RBA) GST-Q46 protein was generated based on a previous publication (Scherzinger et al. Cell, Vol. 90, 549-558, Aug. 8, 1997). For experiments 33 μM GST-Q46 was incubated with 150 μg/mL thrombin in assay buffer (150 mM NaCl, 50 mM Tris pH 8.0) and 2 mM CaCl2 for 16 hours at 37° C. Aggregated Q46 was pelleted by centrifugation for 5 minutes at 13,000 rpm in a bench top centrifuge and re-dissolved in the same volume of assay buffer. Test compounds were prepared by titration in DMSO at 11 concentrations from 33 μM to 1 nM. For the RBA, Q46 protein aggregates and test compounds were pre-incubated in assay buffer for 20 minutes at room temperature, in 140 μL/well in a 96-well plate (pp, round bottom). Then, ligand was added in 10 μL/well and incubated for 60 minutes at 37° C. Final assay concentrations were 1 μM to 30 pM test compound, 5 μM Q46 protein (equivalent monomer concentration) and 10 nM ligand [^3H3]MK-3328 (Harrision et al., ACS Med. Chem. Lett., 2 (2011), pp 498-502). Samples were transferred onto GF/B filter plates and washed 2× with 200 μL PBS using a Filtermate Harvester. After drying filter plates for 1 hour at 37° C., the back of the plates were sealed with foil and 30 μL/well scintillation fluid (Packard MicroScint 40) added, incubated for 15 minutes in the dark and counted in a TopCount reader. For analysis, replicate data from independent assay plates were normalized towards 0% and 100% inhibition using control wells of vehicle (0% inhibition) and 3 μM unlabelled MK-3328 (100% inhibition). IC50 values were determined with a sigmoidal inhibition model with four variables (top, bottom, slope, IC50) in a global fit using the normalized replicate data.

T1 sequence (P42858 with tags, fused parts or gaps with the stated changes, form open): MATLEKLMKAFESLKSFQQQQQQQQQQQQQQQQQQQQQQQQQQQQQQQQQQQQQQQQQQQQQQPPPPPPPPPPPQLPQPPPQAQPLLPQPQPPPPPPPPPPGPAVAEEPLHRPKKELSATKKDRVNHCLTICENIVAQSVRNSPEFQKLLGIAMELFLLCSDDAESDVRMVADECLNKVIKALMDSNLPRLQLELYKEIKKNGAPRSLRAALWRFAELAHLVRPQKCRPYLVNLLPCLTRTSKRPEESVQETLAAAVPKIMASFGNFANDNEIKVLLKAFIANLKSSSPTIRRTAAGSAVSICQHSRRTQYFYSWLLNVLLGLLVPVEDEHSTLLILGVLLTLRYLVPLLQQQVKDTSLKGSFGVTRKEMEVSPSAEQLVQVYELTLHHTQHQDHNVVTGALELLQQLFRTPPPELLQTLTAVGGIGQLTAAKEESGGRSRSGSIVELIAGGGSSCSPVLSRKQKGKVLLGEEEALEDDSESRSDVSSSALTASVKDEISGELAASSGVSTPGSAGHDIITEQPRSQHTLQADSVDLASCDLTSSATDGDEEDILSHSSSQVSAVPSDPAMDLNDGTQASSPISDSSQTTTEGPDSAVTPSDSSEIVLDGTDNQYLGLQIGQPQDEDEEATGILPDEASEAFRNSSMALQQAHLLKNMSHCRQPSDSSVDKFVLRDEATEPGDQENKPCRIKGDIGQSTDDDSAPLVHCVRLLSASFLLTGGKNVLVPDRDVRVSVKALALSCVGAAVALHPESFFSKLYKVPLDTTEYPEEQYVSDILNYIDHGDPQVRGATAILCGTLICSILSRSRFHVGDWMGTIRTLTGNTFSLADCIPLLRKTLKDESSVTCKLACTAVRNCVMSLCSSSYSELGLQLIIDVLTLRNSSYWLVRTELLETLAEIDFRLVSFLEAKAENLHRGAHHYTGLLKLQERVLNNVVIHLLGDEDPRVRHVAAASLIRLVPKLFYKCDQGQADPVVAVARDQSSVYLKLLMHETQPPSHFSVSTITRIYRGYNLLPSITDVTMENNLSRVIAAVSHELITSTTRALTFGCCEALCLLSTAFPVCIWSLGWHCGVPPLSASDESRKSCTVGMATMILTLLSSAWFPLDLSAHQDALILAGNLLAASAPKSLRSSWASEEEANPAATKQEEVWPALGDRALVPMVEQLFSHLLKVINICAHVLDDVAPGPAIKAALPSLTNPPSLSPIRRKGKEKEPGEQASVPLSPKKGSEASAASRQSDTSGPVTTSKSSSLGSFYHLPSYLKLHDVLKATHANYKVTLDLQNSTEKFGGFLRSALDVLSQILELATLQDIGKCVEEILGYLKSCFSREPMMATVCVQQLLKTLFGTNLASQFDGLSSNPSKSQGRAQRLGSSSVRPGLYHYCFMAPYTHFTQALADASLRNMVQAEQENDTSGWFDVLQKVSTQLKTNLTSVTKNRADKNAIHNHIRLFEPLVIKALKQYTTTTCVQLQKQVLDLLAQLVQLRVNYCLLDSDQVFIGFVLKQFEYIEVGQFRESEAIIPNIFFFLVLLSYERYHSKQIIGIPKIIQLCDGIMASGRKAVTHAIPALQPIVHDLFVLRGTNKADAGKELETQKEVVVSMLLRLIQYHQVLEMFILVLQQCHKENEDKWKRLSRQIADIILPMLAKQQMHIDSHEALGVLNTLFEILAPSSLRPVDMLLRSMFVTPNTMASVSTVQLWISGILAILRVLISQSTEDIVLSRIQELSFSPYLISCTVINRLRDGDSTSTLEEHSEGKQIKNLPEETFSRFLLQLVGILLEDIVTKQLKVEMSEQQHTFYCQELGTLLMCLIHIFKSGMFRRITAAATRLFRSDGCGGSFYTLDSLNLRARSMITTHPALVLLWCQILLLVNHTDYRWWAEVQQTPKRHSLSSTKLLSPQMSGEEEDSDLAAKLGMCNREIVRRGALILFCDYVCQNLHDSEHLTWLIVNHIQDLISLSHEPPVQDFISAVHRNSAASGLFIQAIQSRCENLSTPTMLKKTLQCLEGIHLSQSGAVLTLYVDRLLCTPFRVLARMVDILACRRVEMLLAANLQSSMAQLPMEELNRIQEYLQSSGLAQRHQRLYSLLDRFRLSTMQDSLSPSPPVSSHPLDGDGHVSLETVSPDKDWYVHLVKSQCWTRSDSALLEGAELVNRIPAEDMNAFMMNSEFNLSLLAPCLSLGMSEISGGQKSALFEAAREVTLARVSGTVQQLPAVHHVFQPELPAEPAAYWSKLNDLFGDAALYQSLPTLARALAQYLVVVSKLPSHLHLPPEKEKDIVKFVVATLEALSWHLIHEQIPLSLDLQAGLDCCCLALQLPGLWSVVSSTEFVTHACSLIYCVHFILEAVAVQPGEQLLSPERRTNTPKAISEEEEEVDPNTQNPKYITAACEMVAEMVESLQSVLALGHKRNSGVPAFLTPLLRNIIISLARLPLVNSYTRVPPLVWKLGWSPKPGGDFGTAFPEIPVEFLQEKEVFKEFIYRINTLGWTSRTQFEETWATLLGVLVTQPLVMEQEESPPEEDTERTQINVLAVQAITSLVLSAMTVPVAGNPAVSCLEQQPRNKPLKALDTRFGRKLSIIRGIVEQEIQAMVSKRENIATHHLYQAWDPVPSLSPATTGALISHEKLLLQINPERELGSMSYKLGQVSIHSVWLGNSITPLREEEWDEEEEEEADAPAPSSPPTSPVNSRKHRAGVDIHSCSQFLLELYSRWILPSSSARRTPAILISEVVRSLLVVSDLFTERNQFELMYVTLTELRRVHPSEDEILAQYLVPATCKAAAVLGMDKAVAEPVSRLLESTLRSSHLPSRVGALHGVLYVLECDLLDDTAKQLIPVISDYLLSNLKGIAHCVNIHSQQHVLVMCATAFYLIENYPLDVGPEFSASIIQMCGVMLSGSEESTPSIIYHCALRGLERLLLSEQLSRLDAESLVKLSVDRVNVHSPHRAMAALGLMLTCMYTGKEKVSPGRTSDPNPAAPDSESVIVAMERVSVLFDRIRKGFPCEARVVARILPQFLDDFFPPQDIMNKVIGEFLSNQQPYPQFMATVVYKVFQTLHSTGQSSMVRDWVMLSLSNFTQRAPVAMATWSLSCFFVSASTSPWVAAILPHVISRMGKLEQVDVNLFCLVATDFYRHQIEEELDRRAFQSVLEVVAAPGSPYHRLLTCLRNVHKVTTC

Structure (SMILES)	IC50 [nM]
COc1ccc(COc2cnc3oc(-c4cccnc4)nc3c2)nn1 [3-methoxy-6-({[2-(pyridin-3-yl)-[1,3]oxazolo[5,4-b]pyridin-6-yl]oxy}methyl)pyridazine]	< 100
COc1cnc2c(c1)CN(c1ccc3oc(-c4cccnc4)nc3c1)C2=O [3-methoxy-6-[2-(pyridin-3-yl)-1,3-benzoxazol-5-yl]-5H,6H,7H-pyrrolo[3,4-b]pyridin-7-one]	< 100
COc1ccc(-c2nc3cc(NC(=O)c4cccc(OC)c4)ccc3o2)cc1 [3-methoxy-N-[2-(4-methoxyphenyl)-1,3-benzoxazol-5-yl]benzamide]	< 100
COc1cc(C(=O)Nc2ccc3oc(-c4cccnc4)nc3c2)on1 [3-methoxy-N-[2-(pyridin-3-yl)-1,3-benzoxazol-5-yl]-1,2-oxazole-5-carboxamide]	< 100
COc1cccnc1C(=O)Nc1ccc2oc(-c3cccnc3)nc2c1 [3-methoxy-N-[2-(pyridin-3-yl)-1,3-benzoxazol-5-yl]pyridine-2-carboxamide]	100 to 500
O=C(Nc1ccc2oc(-c3cccnc3)nc2c1)c1cccc(Oc2ccccc2)c1 [3-phenoxy-N-[2-(pyridin-3-yl)-1,3-benzoxazol-5-yl]benzamide]	< 100
Cn1cc(COc2ccc3oc(-c4cnccc4C#N)cc3c2)cn1 [3-{5-[(1-methyl-1H-pyrazol-4-yl)methoxy]-1-benzofuran-2-yl}pyridine-4-carbonitrile]	< 100
COc1ccc(COc2ccc3oc(-c4cccc(C#N)c4)nc3c2)nc1 [3-{5-[(5-methoxypyridin-2-yl)methoxy]-1,3-benzoxazol-2-yl]benzonitrile]	< 100
COc1ccc(COc2ccc3oc(-c4ccc[n+]([O-])c4)nc3c2)nc1 [3-{5-[(5-methoxypyridin-2-yl)methoxy]-1,3-benzoxazol-2-yl}pyridin-1-ium-1-olate]	< 100
COc1ccc(C(C)Oc2cnc3oc(-c4cccnc4)nc3c2)nc1 (stereo not drawn) [3-{6-[1-(5-methoxypyridin-2-yl)ethoxy]-[1,3]oxazolo[5,4-b]pyridin-2-yl}pyridine]	100 to 500
COc1ccc(C#Cc2cnc3oc(-c4cccnc4)nc3c2)cc1 [3-{6-[2-(4-methoxyphenyl)ethynyl]-[1,3]oxazolo[5,4-b]pyridin-2-yl}pyridine]	< 100
C(#Cc1cnc2oc(-c3cccnc3)nc2c1)c1cccnc1 [3-{6-[2-(pyridin-3-yl)ethynyl]-[1,3]oxazolo[5,4-b]pyridin-2-yl}pyridine]	< 100
Brc1ccc(COc2cnc3oc(-c4cccnc4)nc3c2)nc1 [3-{6-[(5-bromopyridin-2-yl)methoxy]-[1,3]oxazolo[5,4-b]pyridin-2-yl}pyridine]	< 100
COc1ccc(COc2cnc3oc(-c4ccc[n+]([O-])c4)nc3c2)[n+]([O-])c1 [3-{6-[(5-methoxy-1-oxidopyridin-1-ium-2-yl)methoxy]-[1,3]oxazolo[5,4-b]pyridin-2-yl}pyridin-1-ium-1-olate]	100 to 500
COc1ccc(COc2cnc3oc(-c4cccnc4)nc3c2)nc1 [3-{6-[(5-methoxypyridin-2-yl)methoxy]-[1,3]oxazolo[5,4-b]pyridin-2-yl}pyridine]	< 100
COc1ccc(COc2cnc3oc(-c4cccnc4)nc3c2)cn1 [3-{6-[(6-methoxypyridin-3-yl)methoxy]-[1,3]oxazolo[5,4-b]pyridin-2-yl}pyridine]	< 100
COc1ccc(/C=C\c2cnc3oc(-c4cccnc4)nc3c2)cc1 [3-{6-[(Z)-2-(4-methoxyphenyl)ethenyl]-[1,3]oxazolo[5,4-b]pyridin-2-yl}pyridine]	< 100
BrC1=C(c2cc3cc(OCc4cccnc4)ccc3o2)N2CCN=C2S1 [3-{[(2-{2-bromo-5H,6H-imidazo[2,1-b][1,3]thiazol-3-yl}-1-benzofuran-5-yl)oxy]methyl}pyridine]	< 100
C1=C(c2cc3cc(OCc4cccnc4)ccc3o2)N2CCN=C2S1 [3-{[(2-{5H,6H-imidazo[2,1-b][1,3]thiazol-3-yl}-1-benzofuran-5-yl)oxy]methyl}pyridine]	< 100
N#Cc1cnccc1-c1cc2cc(OCC3=CSC4=NCCN34)ccc2o1 [4-(5-{5H,6H-imidazo[2,1-b][1,3]thiazol-3-ylmethoxy}-1-benzofuran-2-yl)pyridine-3-carbonitrile]	< 100
N#Cc1cnccc1-c1cc2cc(OCc3cnn(CCO)c3)ccc2o1 [4-(5-{[1-(2-hydroxyethyl)-1H-pyrazol-4-yl]methoxy}-1-benzofuran-2-yl)pyridine-3-carbonitrile]	< 100

Structure (SMILES)	IC50 [nM]
COCCn1cc(COc2ccc3oc(-c4ccncc4C#N)cc3c2)cn1 [4-(5-{[1-(2-methoxyethyl)-1H-pyrazol-4-yl]methoxy}-1-benzofuran-2-yl)pyridine-3-carbonitrile]	< 100
CSc1ccc(C(=O)Nc2ccc3oc(-c4cccnc4)nc3c2)cc1 [4-(methylsulfanyl)-N-[2-(pyridin-3-yl)-1,3-benzoxazol-5-yl]benzamide]	< 100
O=C(Nc1ccc2oc(-c3cccnc3)nc2c1)c1ccc(COc2ccccc2)cc1 [4-(phenoxymethyl)-N-[2-(pyridin-3-yl)-1,3-benzoxazol-5-yl]benzamide]	< 100
N#Cc1cnccc1-c1cc2cc(OCc3cn[nH]c3)ccc2o1 [4-[5-(1H-pyrazol-4-ylmethoxy)-1-benzofuran-2-yl]pyridine-3-carbonitrile]	< 100
N#Cc1cnccc1-c1cc2cc(Oc3cccnc3)ccc2o1 [4-[5-(pyridin-3-yloxy)-1-benzofuran-2-yl]pyridine-3-carbonitrile]	< 100
N#Cc1cnccc1-c1cc2cc(OCc3cncnc3)ccc2o1 [4-[5-(pyrimidin-5-ylmethoxy)-1-benzofuran-2-yl]pyridine-3-carbonitrile]	< 100
CN(C)CCn1cc(COc2ccc3oc(-c4ccncc4C#N)cc3c2)cn1 [4-[5-({1-[2-(dimethylamino)ethyl]-1H-pyrazol-4-yl}methoxy)-1-benzofuran-2-yl]pyridine-3-carbonitrile]	< 100
Cc1cncc(Oc2ccc(C(=O)Nc3ccc4oc(-c5cccnc5)nc4c3)cc2)n1 [4-[(6-methylpyrazin-2-yl)oxy]-N-[2-(pyridin-3-yl)-1,3-benzoxazol-5-yl]benzamide]	< 100
N#Cc1ccc(C(=O)Nc2ccc3oc(-c4cccnc4)nc3c2)cc1 [4-cyano-N-[2-(pyridin-3-yl)-1,3-benzoxazol-5-yl]benzamide]	< 100
O=C(Nc1ccc2oc(-c3cccnc3)nc2c1)c1cc(O)ccn1 [4-hydroxy-N-[2-(pyridin-3-yl)-1,3-benzoxazol-5-yl]pyridine-2-carboxamide]	100 to 500
COc1ccnc(COc2cnc3oc(-c4cccnc4)nc3c2)c1 [4-methoxy-2-({[2-(pyridin-3-yl)-[1,3]oxazolo[5,4-b]pyridin-6-yl]oxy}methyl)pyridine]	< 100
COc1ccnc(C(=O)Nc2ccc3oc(-c4ccc(=O)n(C)n4)nc3c2)c1 [4-methoxy-N-[2-(1-methyl-6-oxo-1,6-dihydropyridazin-3-yl)-1,3-benzoxazol-5-yl]pyridine-2-carboxamide]	< 100
COc1ccc(C(=O)Nc2ccc3oc(-c4cccc(C)c4)nc3c2)cc1 [4-methoxy-N-[2-(3-methylphenyl)-1,3-benzoxazol-5-yl]benzamide]	< 100
COc1ccc(C(=O)Nc2cnc3oc(-c4cccc(C)c4)nc3c2)cc1 [4-methoxy-N-[2-(3-methylphenyl)[1,3]oxazolo[5,4-b]pyridin-6-yl]benzamide]	< 100
COc1ccc(C(=O)Nc2ccc3oc(-c4ccc(OC)cc4)nc3c2)cc1 [4-methoxy-N-[2-(4-methoxyphenyl)-1,3-benzoxazol-5-yl]benzamide]	< 100
COc1ccc(C(=O)Nc2ccc3oc(-c4cccnc4)nc3c2)cc1 [4-methoxy-N-[2-(pyridin-3-yl)-1,3-benzoxazol-5-yl]benzamide]	< 100
COc1ccnc(C(=O)Nc2ccc3oc(-c4cccnc4)nc3c2)c1 [4-methoxy-N-[2-(pyridin-3-yl)-1,3-benzoxazol-5-yl]pyridine-2-carboxamide]	< 100
COc1ccc(C(=O)Nc2ccc3oc(-c4ccncc4)nc3c2)cc1 [4-methoxy-N-[2-(pyridin-4-yl)-1,3-benzoxazol-5-yl]benzamide]	< 100
Cn1ccnc1COc1ccc2oc(-c3ccncc3C#N)cc2c1 [4-{5-[(1-methyl-1H-imidazol-2-yl)methoxy]-1-benzofuran-2-yl}pyridine-3-carbonitrile]	100 to 500
Cn1cnc(COc2ccc3oc(-c4ccncc4C#N)cc3c2)c1 [4-{5-[(1-methyl-1H-imidazol-4-yl)methoxy]-1-benzofuran-2-yl}pyridine-3-carbonitrile]	< 100
Cn1cc(COc2ccc3oc(-c4ccncc4C#N)cc3c2)cn1 [4-{5-[(1-methyl-1H-pyrazol-4-yl)methoxy]-1-benzofuran-2-yl}pyridine-3-carbonitrile]	< 100
